According to EP0978561A1, “Antisense oligonucleotides for the inhibition of VEGF expression” (Hoechst Marion Roussel Deutschland GmbH, priority 1998, dated 2000):
Where two headings read alike, the source gives them in different places.

System: human VEGF
Assay: VEGF protein assay: ELISA of secreted VEGF in conditioned medium of oligonucleotide-treated cells
Assay type: cell-based
Conditions: cells treated 5 hours with oligonucleotide and Cellfectin, secreted VEGF in supernatant, 100% = Cellfectin without oligonucleotide, read-out: IC50 for VEGF secretion
Description: The cells are plated in 96-well plates at 30,000 cells/well, 150 ul medium per well (medium depends on cell type). The next day, Cellfectin (Gibco-BRL) is diluted to 400 ug/ml in water (solution A). Oligonucleotides are diluted to 40X the final desired concentration in water (solution B). Equal amounts of solutions A and B are mixed, to give the desired volume of a solution that is 200 µg/ml Cellfectin and 20X oligonucleotide, and the mixture left at room temperature for 30 minutes. After 30 minutes, 19 volumes of Optimem (Gibco-BRL) is added to give a final solution that is 10 µg/ml Cellfectin and 1X oligonucleotide (solution C). Medium is removed from the cells, the wells are washed 2X with Optimem, and 150 µl solution C added to each well. The plates are then returned to the incubator (37°C, 5% CO2). After 5 hours, the Cellfectin/oligonucleotide solution is removed and replaced with 150 µl of regular growth medium. VEGF protein and mRNA assays are performed beginning 19 hours later.
Samples (from example 4) of conditioned medium are taken from the desired wells and assayed for the presence of human VEGF using the human VEGF ELISA kit from R & D systems.The assay protocol is the one provided with the kit.
The IC50s are calculated based on a value of 100% for the amount of VEGF protein or mRNA in cells treated with Cellfectin but no oligonucleotide.

Substance | IC50 (listed as ON54) [nM] | IC50 [nM]
5'-p*-(2'5'-rA*rA*rA*rA)*(teg) G*C*G C*T G A*T*A G A*C*A T*C*C*A*T*G -3' (GCGCTGATAGACATCCATG; 5'-phosphate 2'5' rA4, teg linker, all-2'-O-methyl, chemistry not fully specified) [ON 54, 2'5'(rA)4-conjugate all-2'-O-methyl] | ~230 | 230
5'-p*(2'5'-Co Co Co Co)(teg) G*C*G C*T G A*T*A G A*C*A T*C*C*A*T*G -3' (GCGCTGATAGACATCCATG; chemistry not fully specified) [ON 53, 2'5(Co)4-conjugate all-2'-O-methyl] | – | 1500
